Results on 1 compound are retold here after US20260240878A1, “PTP1B/TC-PTP DUAL INHIBITORS AND PROTEIN DEGRADERS” (Purdue Research Foundation, priority 2023, published 2026).

The target in series [1] is T1, PTP1B (Homo sapiens, UniProt P18031).
T1 sequence (P18031 1-435): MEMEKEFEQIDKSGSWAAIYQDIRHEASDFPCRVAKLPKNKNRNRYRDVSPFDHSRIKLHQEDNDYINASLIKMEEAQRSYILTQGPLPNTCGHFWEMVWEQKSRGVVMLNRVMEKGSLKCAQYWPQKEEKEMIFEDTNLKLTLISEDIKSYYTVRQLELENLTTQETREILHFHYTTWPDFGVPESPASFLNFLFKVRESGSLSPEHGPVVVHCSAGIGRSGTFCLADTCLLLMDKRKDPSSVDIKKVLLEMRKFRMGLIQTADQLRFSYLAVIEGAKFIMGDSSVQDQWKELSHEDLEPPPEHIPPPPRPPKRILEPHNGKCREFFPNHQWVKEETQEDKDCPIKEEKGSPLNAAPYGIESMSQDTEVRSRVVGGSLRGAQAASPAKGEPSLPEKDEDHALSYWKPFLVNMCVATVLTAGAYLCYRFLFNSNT
Briefly: PTP activity assay with pNPP substrate (IC50, Ki, mode of inhibition). In kind it is biochemical. Conditions: pNPP 2 mM, pH 7.0, 25° C.; read-out: IC50, nM PTP1B. An outline of the steps:
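Hydrolysis of pNPP measured spectrophotometrically in pH 7.0 DMG buffer (EDTA, NaCl, DTT, BSA) at 25 °C, 0.4 nM enzyme. IC50 at 2 mM pNPP (Km) over an inhibitor titration; mode of inhibition and Ki from rates across varied pNPP and inhibitor levels, fitted to enzyme kinetic models.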

A further series has as its system MC38 cells. Briefly: MHC-I expression in MC38 cells by flow cytometry. In kind it is cell-based. Conditions: 500 nM 16 hours, then mouse IFN-γ 48 hours. As for the experimental part:
Mouse MHC-I complex was stained with mouse H2K(b)/H2D(b) antibody and measured by flow cytometry.
After incubation, MC38 cells were trypsinized and washed in PBS+2% FBS, stained with Alexa Fluor® 647 anti-mouse H-2Kb/H-2Db Antibody against mouse MHC-I complex and then analyzed on a BD Fortessa LSR flow cytometry cell analyzer.
On the technique in general: In flow cytometry, cells or beads pass a laser one at a time.

Series [2] is described as follows: Pharmacokinetic study in mice (i.p., different formulas). In kind it is in vivo, mouse. Conditions: PBS buffer compared to saline. As for the experimental part: Plasma concentrations of compound 47 were measured by LCMS after i.p. injection with different formulas at the indicated time.
For the PK study, C57BL6 female mice (25-30 g body weight) were injected intraperitoneally with 25 or 50 mg/kg compound 47 dissolved in 0.4 ml saline. Blood samples were collected through the tail vein at indicated time points after injection. Isoflurane was used as an anesthetic. All blood samples were centrifuged at 1,500 g for 5 minutes, and plasma was separated and stored at −80° C. until analysis by a validated method based on reversed-phase liquid chromatography coupled to mass-spectrometric detection (LC/MS) using a reported procedure (Journal of Clinical Investigation, 2018, 128, 816-825), which is hereby specifically incorporated by reference for its teachings regarding same (FIG. 5A).
Saline was replaced by PBS buffer in the treatment of compound 47 in mice to improve PK properties (FIG. 10). Both Cmax and area under the curve (AUC) were increased compared to the above method with saline.

For series [3], the target named is T1, PTP1B. Briefly: Degradation assay in HEK293 cells (immunoblotting). Format: cell-based. Further details: endogenous in cells; host or cells: HEK293. Conditions: 0.2 μM degrader, 16 hours.
For another series, the target named is T2, TC-PTP (Homo sapiens, UniProt P17706).
T2 sequence (P17706 1-415): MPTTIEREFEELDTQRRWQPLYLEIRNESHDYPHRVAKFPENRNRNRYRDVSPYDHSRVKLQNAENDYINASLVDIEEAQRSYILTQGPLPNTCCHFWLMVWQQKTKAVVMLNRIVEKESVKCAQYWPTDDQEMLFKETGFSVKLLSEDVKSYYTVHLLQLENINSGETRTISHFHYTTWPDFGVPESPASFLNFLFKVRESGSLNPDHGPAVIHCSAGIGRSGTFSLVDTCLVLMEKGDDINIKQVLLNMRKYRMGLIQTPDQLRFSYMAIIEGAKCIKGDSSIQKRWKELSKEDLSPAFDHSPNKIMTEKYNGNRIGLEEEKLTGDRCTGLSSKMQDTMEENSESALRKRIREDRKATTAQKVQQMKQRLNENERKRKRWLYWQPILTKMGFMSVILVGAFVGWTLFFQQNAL
Nature of the series: Degradation assay in HEK293 cells (immunoblotting). Further details: endogenous in cells; host or cells: HEK293. Conditions: 0.2 μM degrader, 16 hours, read-out: % Protein Degradation TC-PTP. In kind it is cell-based.

*1 amine or outer side, *2 acyl side, *3 side chain or, on linkers, in order; H or OH if unused. Where a SMILES comes first, the peptide text is derived from it. [ ]: non-standard residue; d: D form. The star is where a group is joined. NHCH2(1,3-C6H4)CH2CO = O=C(Cc1cccc(CN[*:1])c1)[*:2]; F2Pmp = N[C@@H](Cc1ccc(C(F)(F)P(=O)(O)O)cc1)C(=O)O; Phenylacetyl(4-OH,3-OMe) = COc1cc(CC(=O)*)ccc1O; Benzoyl(3-Br,4-Me) = Cc1ccc(C(=O)*)cc1Br; X1 = Cc1ncsc1-c1ccc([C@H](C)N*)cc1; Hyp = O=C(O)[C@@H]1C[C@@H](O)CN1; Tle = CC(C)(C)[C@H](N)C(=O)O

As for `COc1cc(CC(=O)N[C@@H](Cc2ccccc2)C(=O)N[C@@H](Cc2ccc(C(F)(F)P(=O)(O)O)cc2)C(=O)N[C@@H](CCCCNC(=O)c2ccc(C)c(Br)c2)C(=O)NCc2cccc(CC(=O)N[C@H](C(=O)N3C[C@H](O)C[C@H]3C(=O)N[C@@H](C)c3ccc(-c4scnc4C)cc3)C(C)(C)C)c2)ccc1O` [Compound 47, ((4-((S)-3-(((S)-6-(3-bromo-4-methylbenzamido)-1-((3-(2-(((S)-1-((2S,4R)-4-hydroxy-2-(((S)-1-(4-(4-methylthiazol-5-yl)phenyl)ethyl)carbamoyl)pyrrolidin-1-yl)-3,3-dimethyl-1-oxobutan-2-yl)amino)-2-oxoethyl)benzyl)amino)-1-oxohexan-2-yl)amino)-2-((S)-2-(2-(4-hydroxy-3-methoxyphenyl)acetamido)-3-phenylpropanamido)-3-oxopropyl)phenyl)difluoromethyl)phosphonic Acid] ({Phenylacetyl(4-OH,3-OMe)}-F[F2Pmp]K(Benzoyl(3-Br,4-Me))[NHCH2(1,3-C6H4)CH2CO][Tle][Hyp]-X1), the IC50 on PTP1B [1] was 24.2 ± 1.7 nM. In addition, the MHC-I expression result with MC38 cells is on record as “elevated expression of MHC-I”. In addition, in series [2], the Cmax result is on record as “increased” and the “area under the curve (AUC)” value is reported as “increased”. Moreover, the “% Protein Degradation PTP1B” value at PTP1B [3] is recorded as 95%. Besides, on TC-PTP, the percent TC-PTP degradation at 0.2 µM turned out to be 92%.

By IC50 is commonly meant the concentration that gives 50% inhibition.
